Source: publication PMC4871480, “A Miniaturized Screen of a Schistosoma mansoni Serotonergic G Protein-Coupled Receptor Identifies Novel Classes of Parasite-Selective Inhibitors” (PLoS Pathogens, 2016)
Entries after “also recorded” stand apart in the source; their conditions may differ. Like-named read-outs stand apart in the source and are kept apart here.

Key:
[1] = system: adult schistosomes; assay: Adult schistosome mobility assay; assay type: in vivo, Schistosoma mansoni; conditions: 10μM; for effect on 5-HT evoked increases in worm movement / time to recovery of movement after drug removal, male worms: 5-HT 100μM; for time to recovery of movement after drug removal, male worms: 2 hour exposure; for effect on basal movement of adult worms: worms at rest
Description: Female Swiss Webster mice exposed to Schistosoma mansoni cerceria (Strain PR-1) at 5–7 weeks old were obtained from BEI Resources (Cat. number NR-34792) and sacrificed 6–8 weeks post-infection. Mature S. mansoni were harvested from the mesenteric vasculature by portal perfusion. Briefly, mice were anesthetized in a CO2 chamber and sacrificed by cervical dislocation. Mice were perfused with sodium citrate (25mM) and adult schistosomes were harvested from the mesenteric veins. Schistosomes were washed in RPMI media containing penicillin (1000 units/mL), streptomycin (1000 μg/mL) and 25mM HEPES, then transferred to RPMI media supplemented with 2mM glutamine and 5% heat inactivated FBS. Worms were incubated overnight at 37°C, 5% CO2 before conducting assays. Recordings of adult schistosome movement were captured using a Zeiss Discovery v20 stereomicroscope and a QiCAM 12-bit cooled color CCD camera. Videos were acquired at a rate of four frames per second for one minute. Recordings of female worms were acquired at 7.6x magnification, 30 mm field of view and recordings of male worms were acquired at a 5.1x magnification, 45 mm field of view. Analysis was performed in ImageJ as described previously. Briefly, image (.tiff) stacks of each recording were imported and processed by converting to binary format so that pixel measurements represent area of the worms’ bodies. Mobility was quantified by measuring the difference in pixels resulting from subtracting the value of one frame (n) from those of the next frame in the sequence (n+1). This difference was expressed as a percentage of the pixels in the initial frame (n), providing a measurement of the worms’ movement over a period of 0.25 seconds. This calculation was performed for each frame in the video, and the results were averaged over the length of the recording. Values reported represent the mean (±) standard error of at least three independent experiments. Animal work was carried out with the oversight and approval of the Laboratory Animal Resources facility at the Iowa State University College of Veterinary Medicine.

[2] = system: S. mansoni schistosomules; assay: Schistosomule contractility assay; assay type: in vivo, Schistosoma mansoni; conditions: Schistosoma mansoni, read-out: IC50 (inhibition of 5-HT evoked contractions)
Description: Biomphalaria glabrata (M-line) snails exposed to Schistosoma mansoni miracidia (Strain PR-1) were obtained from BEI Resources (Cat. number NR-21961) and cercaria were shed following exposure to light (1.5 hours). Cercaria were manually transformed into schistosomula by vortexing (3 x 45 seconds, each separated by 3 minutes on ice) and tails were removed by gradient centrifugation (24ml Percoll, 4ml 10X EMEM, 1.5ml penicillin-streptomycin, 1ml of 1M HEPES in 0.85% NaCl, 9.5ml distilled water) at 500g/15min at 4°C. Supernatant containing tails was discarded, and schistosomules were resuspended in Basch media and incubated (37°C, 5% CO2) overnight before conducting mobility assays. For contractility experiments, somules were incubated in 5-HT free Basch media to resolve a basal contractility rate. […] Schistosomules were incubated in 24 well plates (~200 schistosomules / 0.5mL media per well) for 30 minutes (37°C/5% CO2) prior to acquiring videos of schistosome movement (1 minute recordings / well) using a Nikon Coolpix 5700 camera affixed to a Nikon Eclipse TS100 microscope (10x objective). The WrmTrck plugin for ImageJ was used to quantify worm mobility. Briefly, the major axis of each schistosomule body length was extracted from the raw output of WrmTrck and an average length was determined for the duration of the recording. Contractions were quantified by determining the number of episodes during which the worm body length deviated from the average by over 20%. S. mansoni protocols were approved by the Iowa State University Institutional Biosafety Committee.

[3] = biological target: T1, Sm.5HTR (Schistosoma mansoni, UniProt G4V5G4); assay: cell-based; assay type: cell-based; conditions: for potency (IC50) at Sm.5HTR: Fig 7 quadrant
Description: (§1) HEK293 cells (ATCC CRL-1573.3) were cultured in DMEM supplemented with 10% fetal bovine serum (FBS), penicillin (100 units/ml), streptomycin (100 μg/ml), and L-glutamine (290 μg/ml). Cells were transiently transfected (ViaFect, Promega) as per the manufacturer’s protocol at a density of 2x10^6 cells per T-25 cell-culture flask. Cells were transfected with plasmids encoding GloSensor (Promega) and either Sm.5HTR (Smp_126730, GenBank accession number KF444051.1) or Sm.5HTRL (KX150867), bothGPCRs being codon optimized for mammalian expression, or Hs.5HT7a (GenBank accession number NM_000872.4, R&D Systems) subcloned into pCS2(-). Cell culture reagents were from Invitrogen. Epitope tagged constructs were used to verify expression, and untagged constructs used for all luminescence assays.
(§2) For assays performed on adherent cells, HEK-293 cells were transferred one day post transfection to 96 well, solid white plates (Corning, cat # 3917) coated with 0.01% poly-L-lysine (Sigma Aldrich) at a density of 5 x 10^4 cells / well in DMEM supplemented with 1% dialyzed FBS (Gibco). After overnight culture (37°C/5% CO2), media was decanted and replaced with 100μL / well HBSS supplemented with 0.1% BSA, 20mM HEPES (pH 7.4) and GloSensor reagent. Plates were allowed to equilibrate at room temperature for two hours prior to performing luminescence assays (GloMax-Multi Detection System plate reader, Promega). Conditions for individual assays were described as per figure legends. The standard assay to detect changes in cAMP utilized the F22 sensor in media supplemented with IBMX (200μM). Ligands were added at a concentration of 20x per well for experiments (i.e. 5μl of drug solution added to 100μl of cells). […] For the resazurin reduction assay for cellular viability, cells were incubated with resazurin (final concentration, 10μM) and tested ligands with fluorescence measurements (560 nm excitation/590 nm emission) made at 1.5hr intervals.

[4] = system: regenerating planarians; set-up: method as in PMID 24586156; conditions: cited from earlier work
[5] = biological target: T1, Sm.5HTR; assay: Antagonist washout (inactivating antagonist) GloSensor assay on suspension cells; assay type: cell-based
Description: To test putative irreversible antagonists, assays on suspension cells were performed one day post transfection. […] Compounds were added at 10 μM, and after 30 minute incubation at room temperature cells were centrifuged (300 RCF, 5 minutes) and resuspended in fresh media. This wash step was repeated, and cells were resuspended in HBSS supplemented with 0.1% BSA, 20mM HEPES and GloSensor reagent. Cells were gently rotated to prevent aggregation and settling over the course of the two hour equilibration period, after which time they were transferred to 96 well plates at a density of 8 x 10^4 cells / 100μL per well and assays described for adherent cells.

[6] = biological target: T2, Hs.5HT7R (Homo sapiens, UniProt P34969); assay: GloSensor cAMP assay in HEK293 cells expressing Hs.5HT7R; assay type: cell-based; conditions: for potency (IC50) at Hs.5HT7R: Fig 7 quadrant
T2 construct: host or cells: HEK293 (ATCC CRL-1573.3), transient transfection, pCS2(-) vector
Description: as §1, §2

[7] = biological target: Sm.5HTRL (Schistosoma mansoni, UniProt A0A173FEI8); assay: GloSensor cAMP assay in HEK293 cells expressing Sm.5HTRL; assay type: cell-based; conditions: antagonists 10μM, 5-HT EC80 dose
Description: as §1, §2

T2 sequence (P34969 1-445 isoform P34969-2): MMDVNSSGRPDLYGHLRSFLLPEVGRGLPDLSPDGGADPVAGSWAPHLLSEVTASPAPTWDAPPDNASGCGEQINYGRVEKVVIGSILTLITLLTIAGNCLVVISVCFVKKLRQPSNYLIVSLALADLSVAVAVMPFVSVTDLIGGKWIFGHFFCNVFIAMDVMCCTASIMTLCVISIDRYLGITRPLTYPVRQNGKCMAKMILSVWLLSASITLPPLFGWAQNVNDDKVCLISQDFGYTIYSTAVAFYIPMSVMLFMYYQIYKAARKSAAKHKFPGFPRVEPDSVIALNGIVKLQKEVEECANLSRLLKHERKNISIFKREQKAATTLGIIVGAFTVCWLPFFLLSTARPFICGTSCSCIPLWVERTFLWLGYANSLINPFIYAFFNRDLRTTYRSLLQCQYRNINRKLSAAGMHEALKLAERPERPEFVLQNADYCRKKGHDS
T1 sequence (G4V5G4 entry or part of it): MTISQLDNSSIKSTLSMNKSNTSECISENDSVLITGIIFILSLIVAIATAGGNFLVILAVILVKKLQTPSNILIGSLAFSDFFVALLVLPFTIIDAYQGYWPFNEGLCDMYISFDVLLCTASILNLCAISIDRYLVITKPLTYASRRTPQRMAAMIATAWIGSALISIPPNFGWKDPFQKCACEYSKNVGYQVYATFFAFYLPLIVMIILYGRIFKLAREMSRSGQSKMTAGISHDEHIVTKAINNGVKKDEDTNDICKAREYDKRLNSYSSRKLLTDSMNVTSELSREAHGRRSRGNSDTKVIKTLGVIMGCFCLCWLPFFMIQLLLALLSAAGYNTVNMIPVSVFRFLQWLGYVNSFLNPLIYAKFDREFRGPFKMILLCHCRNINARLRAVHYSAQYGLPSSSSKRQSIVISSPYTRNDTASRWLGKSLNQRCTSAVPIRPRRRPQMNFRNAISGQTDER
Sequence of Sm.5HTRL (A0A173FEI8 entry or part of it): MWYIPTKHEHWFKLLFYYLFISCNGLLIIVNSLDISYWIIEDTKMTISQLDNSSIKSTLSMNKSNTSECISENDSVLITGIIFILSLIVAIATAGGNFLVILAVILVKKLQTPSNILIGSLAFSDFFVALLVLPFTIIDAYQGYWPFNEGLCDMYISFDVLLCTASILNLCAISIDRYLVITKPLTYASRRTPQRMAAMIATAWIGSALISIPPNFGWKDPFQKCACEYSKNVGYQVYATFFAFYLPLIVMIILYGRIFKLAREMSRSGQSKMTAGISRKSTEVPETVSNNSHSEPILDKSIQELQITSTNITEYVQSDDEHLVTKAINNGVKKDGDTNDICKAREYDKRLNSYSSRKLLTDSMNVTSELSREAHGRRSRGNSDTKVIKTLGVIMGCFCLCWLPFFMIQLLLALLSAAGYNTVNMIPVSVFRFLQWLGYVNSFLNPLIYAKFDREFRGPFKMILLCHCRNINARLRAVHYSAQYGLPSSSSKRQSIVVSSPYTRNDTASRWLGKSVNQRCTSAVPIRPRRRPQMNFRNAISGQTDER

CC(C)C[C@H]1C(=O)N2CCC[C@H]2[C@]2(O)O[C@](NC(=O)[C@@H]3C=C4c5cccc6[nH]c(Br)c(c56)C[C@H]4N(C)C3)(C(C)C)C(=O)N12 [bromocriptine]
effect on 5-HT evoked increases in worm movement [1]: inhibited
time to recovery of movement after drug removal, male worms [1]: 24 h
effect on basal movement of adult worms [1]: markedly inhibited worm movements at rest
IC50 [2]: ≤ 1000 nM
ligand type at Sm.5HTR ([3]; Fig 5F): Antagonist
potency (IC50) at Sm.5HTR [3]: sub-μM potency
Kb ([3]; KB (affinity constant, Schild regression), right-shift of 5-HT dose-response): 410 nM
selectivity for the parasitic 5-HT receptor ([3]; Sm.5HTR over Hs.5HT7R): ~ 10 fold
inhibition of 5-HT evoked cAMP generation ([3]; at higher concentrations (>10μM)): almost complete inhibition
agonist efficacy at Sm.5HTR ([3]; dose response, Fig 5A): no efficacy
acute inhibition of 5-HT (10μM) response at Sm.5HTR ([3]; drug 10μM, preincubation): acutely inhibited
Kb ([3]; pKB ± S.E.M, Schild regression): 407 nM
concentration evoking bipolarity, fold less than PZQ [4]: 100 fold
inhibition of Sm.5HTR after antagonist wash-out ([5]; 10μM for 30 mins, washout, 5-HT response 1hr later): long-lasting inhibition
potency for Sm.5HTR inhibition after washout ([5]; titration, Fig 6E): most potent
potency (IC50) at Hs.5HT7R [6]: supra-μM potency

COc1cc2c(cc1OC)[C@@H]1Cc3ccc(OC)c(OC)c3CN1CC2 [rotundine]
effect on 5-HT evoked increases in worm movement [1]: inhibited
time to recovery of movement after drug removal, male worms [1]: ≤ 3 h
effect on basal movement of adult worms [1]: markedly inhibited worm movements at rest
IC50 [2]: ≤ 1000 nM
IC50 [3]: 701 ± 207 nM
selectivity for Sm.5HTR over Hs.5HT7R [3]: clear selectivity for Sm.5HTR; also recorded: clear bias toward Sm.5HTR
potency (IC50) at Sm.5HTR [3]: sub-μM potency
IC50 ([3]; IC50 (antagonism of 5-HT evoked cAMP generation), 5-HT at EC80): ~700 nM
inhibition of 5-HT evoked cAMP generation through Sm.5HTRL [7]: inhibited 5-HT evoked cAMP generation
potency (IC50) at Hs.5HT7R [6]: supra-μM potency
effect on Hs.5HT7 ([6]; concentrations up to 50μM): lacking any effect
